Key:
[1] = Chemical reductant assay: GSH challenge (cell-free); type: physicochemical; conditions: aq. TE buffer pH 7.4, 37° C., 6 h, GSH 0.01-10 mM
Text: (§1) This assay (see FIG. 1) examined the stability of disulfide-based reduction-triggered compounds of the invention when exposed to monothiol reductants, primarily the major physiological cellular monothiol GSH, and dithiol reductants like the disulfide reductant dithiothreitol (DTT), as evaluated in a cell-free assay, to determine whether these compounds can be useful for selective release.
(§2) Assay Conditions: A black 96-well plate with black bottom was charged with solutions of fluorophore-releasing reduction-triggered probes that are compounds of the invention (P1, P2, P3, P4 and P5) or that are not compounds of the invention and reveal the performance of prior art systems (X19) (80 μL; 25 μM in aq. TE buffer (pH 7.4) and 1.25% vol DMSO). Solutions of challenge species chosen from the monothiol glutathione (GSH, 0.1-50 mM) and the dithiol reductant dithiothreitol (DTT, 0.1-50 mM) or phosphine reductant tris-(2-carboxyethyl) phosphine (TCEP); (20 μL; 1 mM in aq. TE buffer (pH 7.4) were added and the reaction mixtures were incubated at 37° C. for 6 h while measuring fluorescence intensity over time [F(t)] using a BMG Labtech FLUOstar Omega platereader (λexc=355 nm, Δem=530 nm for PQ-OH-releasing probes X19, P1 and P2; Δexc=485 nm, Δem=530 nm for MF-OH-releasing probes P3 and P4.
(§3) Data Representation: F^max is the maximum possible fluorescence increase corresponding to complete reduction-triggered cargo release, i.e. the fluorescence intensity increase from time zero to signal plateau under TCEP incubation PQ-OH-releasing probes. F(t)/F^max(t) thus gives the timecourse measurements of fluorescence intensity, as a fraction of the maximum possible fluorescence signal. F^sat is the endpoint fluorescence intensity increase for each condition, ie. F^sat=(F(6 h)). F^sat/F^max thus gives the assay endpoint fluorescence intensity increase, as a fraction of the maximum possible fluorescence signal. In the GSH timecourse measurements shown in FIG. 1, all datasets annotated with concentrations only (0.01-10 mM) refer to GSH challenges, while datasets for TCEP positive control (100 μM) and no-reductant control (blank) are shown for comparison. The dose-response plots show F^sat/F^max for the different ratios between probe and GSH or probe and DTT concentrations, with a logarithmic horizontal scale.

NADPH/TrxR1/Trx1 = target: T1, NADPH/TrxR1/Trx1 (Homo sapiens, UniProt P10599); test: Enzymatic activation assay: NADPH/TrxR1/Trx1 system; type: biochemical; conditions: NADPH/TrxR1 plus Trx1, 37° C., 6 h
T1 sequence (P10599 1-105): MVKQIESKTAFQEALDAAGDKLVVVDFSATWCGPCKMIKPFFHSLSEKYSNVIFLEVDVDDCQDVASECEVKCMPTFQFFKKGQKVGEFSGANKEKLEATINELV
Text: (§4) This assay (see FIG. 2) examined the resistance of disulfide-based reduction-triggered compounds to the major cellular enzymatic systems that maintain redox homeostasis and are capable of reducing disulfides, evaluated in a cell-free assay, to see if these compounds can be useful for selective enzyme-triggered release.
(§5) Assay conditions: A black 96-well plate with black bottom was charged with solutions of fluorophore-releasing reduction-triggered probes that are compounds of the invention (P1, P2) or that are not compounds of the invention and reveal the performance of prior art systems (X19) (50 μL; 40 μM in aq. TE buffer (pH 7.4) and 4 μL DMSO). Separately, master mixes (30 μL in aq. TE buffer (pH 7.4)) containing mixtures of the proteins human recombinant thioredoxin 1 (Trx1, 0.166-16.66 μM) or thioredoxin 2 (Trx2, 3.3 μM), or human recombinant glutaredoxin 1 (“Grx1”, 3.3 μM) or glutaredoxin 2 (Grx2, 3.3 μM) and/or oxidoreductases human recombinant thioredoxin reductase 1 (TrxR1, 0.07 μM), the thioredoxin reductase Secys498Cys mutant (TrxR1-U498C, 0.07 μM), thioredoxin reductase 2 (TrxR2, 0.07 μM) or human recombinant glutathione reductase (GR, 0.07 μM), and/or GSH (3.3 μM) were prepared. Note that TrxR1 (U498C) has decreased reducing power compared to TrxR1 due to the mutation of the key vicinal selenothiol/thiol into a vicinal dithiol, but it still reduces Trx1. […]
(§6) Data Representation: (F(t)-F^NADPH(t)) is the fluorescence intensity of the test solution at time t, from which is subtracted a background fluorescence level also at time t from a solution with NADPH (which itself is fluorescent, and is present in 10-fold higher concentration than the probe) and with the same protein mixture but without the probe. F^max(t) is the maximum possible fluorescence intensity value at time t, determined by incubation with TCEP (100 μM)) similarly as for the chemical reductant assay. (F(t)−F^NADPH(t))/F^max(t) thus gives the timecourse of fluorescence signal, as a fraction of the maximum possible fluorescence signal. […]

TrxR1(U498C) = target: T2, TrxR1(U498C) (Homo sapiens, UniProt Q16881); test: Enzymatic activation assay: TrxR1 Secys498Cys mutant; type: biochemical; conditions: NADPH; for cargo release / processing by TrxR1(U498C)/Trx1: TrxR1(U498C) with Trx1
T2 sequence (Q16881 with tags, fused parts or gaps isoform Q16881-5): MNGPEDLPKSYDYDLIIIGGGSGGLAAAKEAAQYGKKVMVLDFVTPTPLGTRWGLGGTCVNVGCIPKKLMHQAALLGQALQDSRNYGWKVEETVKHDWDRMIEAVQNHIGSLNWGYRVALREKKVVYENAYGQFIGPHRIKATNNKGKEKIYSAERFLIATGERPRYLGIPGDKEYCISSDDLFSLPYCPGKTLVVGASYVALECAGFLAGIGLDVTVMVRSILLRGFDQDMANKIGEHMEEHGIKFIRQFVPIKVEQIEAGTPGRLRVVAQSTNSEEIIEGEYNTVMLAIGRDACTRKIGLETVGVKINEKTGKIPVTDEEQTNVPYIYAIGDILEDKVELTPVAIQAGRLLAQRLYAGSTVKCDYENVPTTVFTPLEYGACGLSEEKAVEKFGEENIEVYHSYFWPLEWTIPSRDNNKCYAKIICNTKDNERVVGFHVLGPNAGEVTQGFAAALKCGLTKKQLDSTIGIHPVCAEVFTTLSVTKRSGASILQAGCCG
Text: as §4, §5, §6

[2] = Chemical reductant assay: DTT challenge (cell-free); type: physicochemical; conditions: aq. TE buffer pH 7.4, 37° C., 6 h
Text: as §1, §2, §3

[3] = target: T3, GR/GSH/Grx (glutaredoxin 2, Grx2) (Homo sapiens, UniProt Q9NS18); test: Enzymatic activation assay: GR/GSH/Grx2; type: biochemical; conditions: full mixture NADPH/GR/GSH/Grx2
T3 sequence (Q9NS18 20-164): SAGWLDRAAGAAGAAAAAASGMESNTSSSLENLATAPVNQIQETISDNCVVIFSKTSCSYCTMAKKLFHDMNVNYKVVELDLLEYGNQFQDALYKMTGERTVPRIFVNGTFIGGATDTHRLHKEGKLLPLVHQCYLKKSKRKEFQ
Text: as §4
Assay conditions: A black 96-well plate with black bottom was charged with solutions of fluorophore-releasing reduction-triggered probes that are compounds of the invention (P1, P2) or that are not compounds of the invention and reveal the performance of prior art systems (X19) (50 μL; 40 μM in aq. TE buffer (pH 7.4) and 4 μL DMSO). […]
as §6

Compound | cargo release (fluorescence) when challenged with monothiol reductant GSH [1] | cargo release / processing by TrxR plus Trx1 (NADPH/TrxR1/Trx1) | cargo release / degradation by TrxR1(U498C) (TrxR1(U498C); TrxR1(U498C)) | activation / cargo release by dithiol reductant DTT [2] | cargo release / processing by TrxR1(U498C)/Trx1 (TrxR1(U498C)) | cargo release / processing by GR/GSH/Grx2 [3]
4-chloro-2-(6-chloro-4-oxo-3,4-dihydroquinazolin-2-yl)phenyl methyl(2-((2-(methyl amino)ethyl)disulfaneyl)ethyl)carbamate [Compound X19, reference compound] | already unstable to the monothiol GSH | enhanced reaction kinetics | rapidly degraded | – | – | –
O=C(Oc1ccc(Cl)cc1-c1nc2ccc(Cl)cc2c(=O)[nH]1)N1CCC[C@@H]2CSSC[C@@H]21 (racemic) [Compound P2, 4-chloro-2-(6-chloro-4-oxo-3,4-dihydroquinazolin-2-yl)phenyl-(cis)-hexahydro-[1,2]dithiino[4,5-b]pyridine-1(2H)-carboxylate] | do not release cargo | processed when additional high levels of Trx1 and Trx2 are added | – | efficiently activated by dithiol-type reductants | not processed | only processed by high levels of Grx1 and Grx2
O=C(Oc1ccc(Cl)cc1-c1nc2ccc(Cl)cc2c(=O)[nH]1)N1CCC[C@@H]2CSSC[C@H]21 (racemic) [Compound P1, 4-chloro-2-(6-chloro-4-oxo-3,4-dihydroquinazolin-2-yl)phenyl-(trans)-hexahydro-[1,2]dithiino[4,5-b]pyridine-1(2H)-carboxylate] | do not release cargo | processed when additional high levels of Trx1 and Trx2 are added | – | efficiently activated by dithiol-type reductants | not processed | only processed by high levels of Grx1 and Grx2

From patent US20240207414A1, “DISULFIDE-BASED PRODRUG COMPOUND” (Ludwig-Maximilians-Universitat Munchen, priority 2021, published 2024)
